Counter-ions that a name gives are not always drawn.
Assays:
[1] = in vivo; settings: rat
[2] = test system: Meerschweinchen-Papillarmuskel; assay: Contraction of isolated guinea pig papillary muscle (safety factor, negative inotropy); format: cell-based; settings: for Sf (Sicherheitsfaktor): Rate Factor von Vmax × (C20 CF/C20 Vmax)
Source text: (§1) Überraschenderweise wurde gefunden, daß das tert.-Butylamino-3-(phenyl-2ʹ-phenoxy)-1-propanol 2 ("Bipranol") der Formel [drawing 1] und seine Salze mit Säuren keine β-sympatholytische Wirkung, sondern eine starke antiarrhythmische Wirkung besitzen. Die elektrophysiologischen und hämodynamischen Wirkungen wurden in vitro an zwei verschiedenen isolierten Herzpräparaten und in vivo (Hund) experimentell untersucht. In Tabelle I sind Ergebnisse pharmakologischer Untersuchungen mit Diprafenon, Propafenon und Bipranol zusammengefaßt.
(§2) C20 Vmax: Konzentration, die Vmax bei einer Zykluslänge von 1000 mSek. um 20 % verringert. C20 CF: Konzentration, die die Kontraktion des Papillarmuskels um 20 % verringert. Rate Factor von Vmax: (% des Kontrollwertes Vmax bei einer Zykluslänge von 2000 mSek.)/(% des Kontrollwertes Vmax bei einer Zykluslänge von 500 mSek.) bei C20Vmax. C20APD95: Die Konzentration, die das APD95 des normalen Aktionspotentials um 20 % verlängert. Sf : Sicherheitsfaktor, errechnet als Rate Factor von Vmax × (C20 CF/C20 Vmax).

[3] = test system: ventrikuläre Arrhythmien; format: in vivo, Hund; settings: dog
Source text: Dies wird auch durch in vivo Experimente bestätigt. Die antiarrhythmische Wirksamkeit der Verbindung wurde an Hunden nach H. Glücker et al., Arzneim.Forsch. (Drug Ros.) Bd. 35 (II), 9 (1985) S.1387-1393 geprüft. Die […] wurde mindestens 2 Stunden lang occludiert. Nach dem Auftreten konstanter […] die Verbindungen intravenös injiziert.

[4] = test system: Hunde-Purkinye Fasern; assay: Electrophysiology on isolated dog Purkinje fibres (Vmax, action potential duration); format: cell-based, Hund; settings: for Rate Factor von Vmax: (% of control Vmax at cycle length 2000 mSek.)/(% of control Vmax at cycle length 500 mSek.) at C20Vmax
Source text: as §1, §2
(§3) In in vitro-Experimenten an isolierten Herzpräparaten lag die leistungsverzögernde und damit antiarrhythmische Wirkung (C20 Vmax) bei einer Dosis von 2,2 µMol Bipranol. Diese Dosierung entspricht einer antiarrhythmischen wirksamen Dosis von etwa 3 mg/kg bei in vivo Versuchen an Hunden. […] Diese Konzentration ist ungefähr 14 mal höher als für eine antiarrhythmische Wirkung gebraucht wird.

[5] = test system: Meerschweinchen-Vorhofmuskel; assay: Antagonism of the positive inotropic effect of adrenaline on isolated guinea pig atrial muscle; format: cell-based; settings: highest test concentration 30 µMol
Procedure: as §3

[6] = test system: β-Rezeptor; format: in vivo, Hund
Source text: Als Parameter zur Bestimmung der β-Rezeptor-blockierenden Wirkung am narkotisierten Hund dienten dP/dt als Maß für die Kontraktionskraft des Herzens, sowie cardiac output (Herzzeitvolumen). […] Im Gegensatz wirken β-Blocker immer negativ-inotrop. […] Die Beobachtungen bei dieser Dosis sind wahrscheinlich Folge einer nicht spezifischen toxischen Wirkung und beruhen nicht auf einer β-sympatolytischen Wirkung.

[7] = anaesthetised dog, up to 30 mg/kg
[8] = concentration that prolongs APD95 of the normal action potential by 20 %

With `CC(C)(C)NCC(O)COc1ccccc1-c1ccccc1` (centres unmarked) [Bipranol HCl, tert.-Butylamino-3-(phenyl-2ʹ-phenoxy)-1-propanol-2] the LD50 ([1]; Ratte (iv)) was 11 mg/kg and the LD50 ([1]; Ratte (oral)) was 571 mg/kg.
For `CC(C)(C)NCC(O)COc1ccccc1-c1ccccc1` (centres unmarked) [Bipranol, tert.-Butylamino-3-(phenyl-2ʹ-phenoxy)-1-propanol-2], the “negativ-inotrope Nebenwirkung” value [2] was “keine nennenswerte negativ-inotrope Nebenwirkung”, the “Sf (Sicherheitsfaktor)” value [2] was 9,09 and the “Reduktion der ventrikulären Extrazystolen” value ([3]; i.v., 1,6 mg/kg followed by 50 µg/kg/min) was over 90%. The “Rate Factor von Vmax” value [4] was 5, the IC20 ([4]; Canis lupus familiaris, purkinje, concentration that reduces Vmax by 20 % at cycle length 1000 mSek., isolated heart preparations, read-out: C20 Vmax) was 2.2 µM and the EC20 ([4]; purkinje, concentration that prolongs APD95 of the normal action potential by 20 %, read-out: C20APD95) was 7.2 µM. The “Abschwächung der positiv-inotropen Wirkung von 1 µMol Adrenalin” value [5] was “geringe Abschwächung”, the “cardiac output (Herzzeitvolumen)” value [6, 7] was “nicht beeinflußt” and the “dP/dt (Kontraktionskraft des Herzens)” value [6, 7] was “keine negativ-inotrope Wirkung”. For the same compound, the Mortality ([6]; in vivo, iv, 30 mg/kg) was “starben alle Hunde”.
With `CCC(C)(C)NCC(O)COc1ccccc1C(=O)CCc1ccccc1` (centres unmarked) [Diprafenon] the “negativ-inotrope Nebenwirkung” value [2] was “deutlich negativer inotroper Effekt”, the “Sf (Sicherheitsfaktor)” value [2] was 4,86 and the “Rate Factor von Vmax” value [4] was 1,19. For the same compound, the C20APD95 [4, 8] was “nicht erreicht”.
With `O=C(NCC1CCCCN1)c1cc(OCC(F)(F)F)ccc1OCC(F)(F)F` (centres unmarked) [Flecainid, reference compound] the “therapeutische Dosierung” value ([3]; i.v., followed by 50 µg/kg/min) was 2,4 mg/kg.
For `CCCNCC(O)COc1ccccc1C(=O)CCc1ccccc1` (centres unmarked) [Propafenon], the “Sf (Sicherheitsfaktor)” value [2] was 1,55, the “Rate Factor von Vmax” value [4] was 1,08 and the C20APD95 [4, 8] was “nicht erreicht”.

— patent publication EP0291663A2, “Tert.-butyl amino-3-(phenyl-2'-phenoxy)-1-propanol-2 for the control of heart arrhythmia” (priority 1987, dated 1988)
